Calls of active or inactive are those of the source. The rule behind the calls is not given here.
Columns and labels:
4T1 [1] = experiment: Antitumor activity against mouse 4T1 cells implanted in BALB/c mouse assessed as appearance of larger void areas in tumor at 0.2 mmol/Kg, po administered once daily for 14 days by histological staining based analysis; assay type: functional, organism-based; conditions: time 14.0 day
[2] = Toxicity in BALB/c mouse implanted with mouse 4T1 cells assessed as change in liver histopathology at 0.2 mmol/Kg, po administered once every day for 14 days; assay type: organism-based; conditions: in vivo, 336 h, time 14 day
[3] = Toxicity in BALB/c mouse implanted with mouse 4T1 cells assessed as increase in white blood cells at 0.2 mmol/Kg, po administered once every day for 14 days by routine blood analysis; assay type: organism-based; conditions: in vivo, 336 h, time 14 day
[4] = Toxicity in BALB/c mouse implanted with mouse 4T1 cells assessed as splenic edema at 0.2 mmol/Kg, po administered once every day for 14 days; assay type: organism-based; conditions: in vivo, 336 h, time 14 day
[5] = Toxicity in BALB/c mouse implanted with mouse 4T1 cells assessed as change in kidney histopathology at 0.2 mmol/Kg, po administered once every day for 14 days; assay type: organism-based; conditions: in vivo, 336 h, time 14 day
4T1 [6] = experiment: Induction of cell cycle arrest in mouse 4T1 cells assessed as accumulation of cells in G0/G1 phase at 10 uM incubated for 24 hrs by flow cytometry relative to control; assay type: functional
4T1 [7] = experiment: Induction of mitochondrial membrane potential loss in mouse 4T1 cells assessed as green fluorescence at 10 uM incubated for 24 hrs by JC-1 staining based flow cytometric analysis (reference value: 11.7%); assay type: cell-based
[8] = Toxicity in BALB/c mouse implanted with mouse 4T1 cells assessed as change in heart histopathology at 0.2 mmol/Kg, po administered once every day for 14 days; assay type: organism-based; conditions: in vivo, 336 h, time 14 day
[9] = Half life in Sprague-Dawley rat plasma at 10 mg/kg, po measured upto 24 hrs by LC-MS/MS analysis; assay type: ADME, organism-based
[10] = Oral bioavailability in Sprague-Dawley rat at 10 mg/kg measured upto 24 hrs by LC-MS/MS analysis; assay type: ADME, organism-based; conditions: in vivo
4T1 [11] = experiment: Induction of apoptosis in mouse 4T1 cells assessed as apoptotic rate at 10 micromol/L incubated for 24 hrs by Annexin-V/PI staining based flow cytometry relative to control; assay type: functional; conditions: dose 10 µmol/L, at 10 µM
[12] = Toxicity in BALB/c mouse implanted with mouse 4T1 cells assessed as increase in AST level at 0.2 mmol/Kg, po administered once every day for 14 days by routine blood analysis; assay type: organism-based; conditions: in vivo, 336 h, time 14 day
4T1 [13] = experiment: Antitumor activity against mouse 4T1 cells implanted in BALB/c mouse assessed as change in tumor weight at 0.2 mmol/Kg, po administered once every day for 14 days; assay type: functional, organism-based; conditions: time 14.0 day
[14] = Prodrug conversion in cell culture medium containing 10% FBS assessed as drug hydrolysis by measuring stachydrine release at 3 to 20 hrs; assay type: ADME; conditions: cattle; time 3-20 hrs
4T1 [15] = experiment: Inhibition of cell migration in mouse 4T1 cells assessed as reduction in wound healing incubated for 24 hrs by microscopic analysis; assay type: functional, cell-based

With `CCCCCCCCCCCCOC(=O)C1CCC[N+]1(C)C.[Cl-]` (stereo not given) the Activity (4T1 [1]) was “Active”, the Activity [2] was “Non-Toxic” and the Activity [3] was “Non-Toxic”. The Activity [4] was “Toxic”, the Activity [5] was “Non-Toxic” and the Activity (4T1 [6]) was ~56%. For the same compound, the Activity (4T1 [7]) was 56.8%, the Activity [8] was “Non-Toxic” and the half-life [9] was 7.62 h. For the same compound, the bioavailability [10] was 79.6%, the Activity (4T1 [11]) was 59% and the Activity [12] was “Toxic”. For the same compound, the Activity (4T1 [13]) was “Active”, the Drug metabolism [14] was “Metabolite_Detected” and the inhibition (4T1 [15]) was “Dose-Dependent Effect”.

— ChEMBL document CHEMBL5625202, “Synthesis, characterization and anti-breast cancer activities of stachydrine derivatives” (Eur J Med Chem, 2023)
